{
  "source": "patent US20240181091A1",
  "about": "“ORAL DELIVERY OF SILICA/ALUMINOSILICATE NANOPARTICLES” (Cornell University, priority 2021, published 2024)",
  "test_system": "Caco-2 monolayer",
  "format": "in vitro ADME, human",
  "experimental": "To test that the monolayer well resembled the epithelial lining of the GI tract and formed tight junctions, Lucifer Yellow (LY) was used as a standard. It has been reported that the integrity of a Caco-2 monolayer is good once the Papp of LY across the monolayer is <5×10^−7 cm/s. The measured Papp of LY across all Caco-2 monolayers (see Methods for more details) used in this study is depicted in FIG. 8B, with all values of Papp<3×10^−7 cm/s.\nCaco-2 Cell Culture: Caco-2 cells (ATCC) were cultured in RPMI 1640 supplemented with 20% fetal bovine serum and 10k/10k penicillin/streptomycin (Lonza). 75 μL of Caco-2 cells were plated on the apical side of a 96-well Transwell dish at a seeding density of 2×10^5 cells/mL. 75 μL of media was used on the apical side and 235 μL on the basolateral side. The media was changed every other day for a week, followed by changes every day until the Papp of a Lucifer Yellow assay was <5×10^−7 cm/s. Cells were incubated at 37° C. with 5% CO2 and 90% humidity.\nLucifer Yellow Monolayer Integrity Assay: Lucifer Yellow (LY) was dissolved at a concentration of 0.1 mg/mL in Hank's balanced salt solution (HBSS). 75 μL of LY solution was added to the apical side and 235 μL HBSS was added to the basolateral side. […] The concentration of LY on the basolateral side was determined using fluorescence 488/520 ex/em with a Spectramax M2. […]",
  "data": [
    {"substance": "Lucifer Yellow [LY]", "values": [
      {"measurement": "Papp of Lucifer Yellow across Caco-2 monolayers", "value": "< 3e-07", "unit": "cm/s"}
    ]}
  ]
}
